Laboratory results as given in ChEMBL document CHEMBL4043241, “Development and evaluation of 4-(pyrrolidin-3-yl)benzonitrile derivatives as inhibitors of lysine specific demethylase 1” (Bioorg Med Chem Lett, 2017).

Tests used:
[1] = target: T1, Lysine-specific histone demethylase 1A (Homo sapiens, UniProt O60341); test: Binding affinity to LSD1 (unknown origin) by SPR analysis
[2] = target: Voltage-gated inwardly rectifying potassium channel KCNH2 (Homo sapiens, UniProt Q12809); test: Inhibition of human ERG expressed in CHO cells by Ionworks electrophysiology method; format: cell-based
[3] = target: T1, Lysine-specific histone demethylase 1A
Description: Inhibition of recombinant human N-terminal truncated LSD1 (151 to 852 residues) expressed in Escherichia coli using histone H3(1-21)K4(Me1) biotin peptide as substrate measured after 30 mins by TR-FRET assay

[4] = target: T2, Amine oxidase [flavin-containing] A (Homo sapiens, UniProt P21397); test: Inhibition of recombinant human MAO-A expressed in supersomes using kynuramine as substrate by LC-MS/MS analysis
T2 sequence (P21397 whole entry): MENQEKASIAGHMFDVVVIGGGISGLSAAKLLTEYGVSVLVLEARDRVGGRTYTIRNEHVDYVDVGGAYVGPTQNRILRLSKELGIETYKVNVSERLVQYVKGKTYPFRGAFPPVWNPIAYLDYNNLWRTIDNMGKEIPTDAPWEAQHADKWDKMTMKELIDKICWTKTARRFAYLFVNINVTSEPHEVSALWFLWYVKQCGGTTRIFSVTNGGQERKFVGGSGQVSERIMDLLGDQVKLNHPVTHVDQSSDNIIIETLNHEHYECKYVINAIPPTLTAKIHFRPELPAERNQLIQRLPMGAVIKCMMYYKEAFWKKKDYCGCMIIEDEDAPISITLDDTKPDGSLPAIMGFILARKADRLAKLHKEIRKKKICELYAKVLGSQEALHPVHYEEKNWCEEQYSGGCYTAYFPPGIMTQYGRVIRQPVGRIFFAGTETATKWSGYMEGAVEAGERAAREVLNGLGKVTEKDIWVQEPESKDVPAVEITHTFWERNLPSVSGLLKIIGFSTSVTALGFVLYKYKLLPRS

[5] = target: T3, Amine oxidase [flavin-containing] B (Homo sapiens, UniProt P27338); test: Inhibition of recombinant human MAO-B expressed in supersomes using kynuramine as substrate by LC-MS/MS analysis
T3 sequence (P27338 whole entry): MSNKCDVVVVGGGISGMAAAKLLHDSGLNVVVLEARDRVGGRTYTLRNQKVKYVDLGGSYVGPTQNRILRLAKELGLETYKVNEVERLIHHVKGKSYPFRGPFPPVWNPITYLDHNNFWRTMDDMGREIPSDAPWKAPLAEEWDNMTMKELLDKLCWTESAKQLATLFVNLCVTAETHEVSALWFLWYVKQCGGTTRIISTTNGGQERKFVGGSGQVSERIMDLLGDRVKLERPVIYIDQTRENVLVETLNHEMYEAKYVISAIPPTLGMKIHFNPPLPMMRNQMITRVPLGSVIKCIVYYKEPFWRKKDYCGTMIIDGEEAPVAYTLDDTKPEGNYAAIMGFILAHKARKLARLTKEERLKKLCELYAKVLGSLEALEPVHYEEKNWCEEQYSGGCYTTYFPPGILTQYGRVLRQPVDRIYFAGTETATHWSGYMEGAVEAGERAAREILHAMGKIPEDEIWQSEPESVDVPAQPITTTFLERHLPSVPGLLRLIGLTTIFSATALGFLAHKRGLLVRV

Voltage-gated inwardly rectifying potassium channel KCNH2, sequence (Q12809 whole entry): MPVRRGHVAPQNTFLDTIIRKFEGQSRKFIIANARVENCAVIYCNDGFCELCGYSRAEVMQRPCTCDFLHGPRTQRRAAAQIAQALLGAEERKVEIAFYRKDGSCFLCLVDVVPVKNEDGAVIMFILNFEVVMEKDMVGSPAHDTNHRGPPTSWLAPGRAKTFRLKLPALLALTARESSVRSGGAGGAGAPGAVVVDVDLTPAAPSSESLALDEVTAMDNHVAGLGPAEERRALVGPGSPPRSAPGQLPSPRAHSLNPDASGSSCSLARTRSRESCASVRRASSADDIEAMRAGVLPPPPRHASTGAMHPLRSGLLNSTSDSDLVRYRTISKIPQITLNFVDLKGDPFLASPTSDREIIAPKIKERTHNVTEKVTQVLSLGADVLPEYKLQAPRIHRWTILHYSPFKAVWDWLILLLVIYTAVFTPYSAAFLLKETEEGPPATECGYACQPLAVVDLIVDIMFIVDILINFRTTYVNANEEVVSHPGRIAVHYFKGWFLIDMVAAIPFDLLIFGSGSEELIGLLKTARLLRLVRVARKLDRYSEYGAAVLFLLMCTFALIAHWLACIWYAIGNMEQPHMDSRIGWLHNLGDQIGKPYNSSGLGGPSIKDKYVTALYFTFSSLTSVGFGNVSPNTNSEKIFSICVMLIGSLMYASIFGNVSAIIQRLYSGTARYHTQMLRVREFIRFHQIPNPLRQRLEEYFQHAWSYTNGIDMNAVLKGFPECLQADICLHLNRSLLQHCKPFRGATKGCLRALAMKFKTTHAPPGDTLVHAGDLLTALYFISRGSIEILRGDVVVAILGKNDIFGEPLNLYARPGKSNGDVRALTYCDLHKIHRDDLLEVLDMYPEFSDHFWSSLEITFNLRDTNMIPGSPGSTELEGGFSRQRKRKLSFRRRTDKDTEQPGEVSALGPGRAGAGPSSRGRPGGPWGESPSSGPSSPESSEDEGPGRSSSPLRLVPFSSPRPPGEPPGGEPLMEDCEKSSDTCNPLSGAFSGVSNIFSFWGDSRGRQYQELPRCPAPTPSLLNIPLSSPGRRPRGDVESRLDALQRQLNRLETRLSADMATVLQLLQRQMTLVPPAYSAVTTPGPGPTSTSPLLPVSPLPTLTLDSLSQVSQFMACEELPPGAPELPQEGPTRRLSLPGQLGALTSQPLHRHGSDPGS

Structure (SMILES)	Kd [1] [µM]	IC50 [2] [µM]	IC50 [3] [µM]	IC50 [4] [µM]	IC50 [5] [µM]
Cc1ccc(-c2ncc(OC[C@@H]3CCNC3)cc2-c2ccc(C#N)cc2)cc1	0.008	3.2	0.041	–	–
Cc1ccc([C@@H]2CN(C(=O)[C@H]3CC[C@H](CN)CC3)C[C@H]2c2ccc(C#N)cc2)cc1	–	12.1	–	> 25	> 25
